According to patent US7989004B2, “Antitubercular extracts of Salicornia brachiata” (Council of Scientific and Industrial Research, priority 2004, dated 2011):

Tested on: M. tuberculosis H37Rv
Test: BACTEC method of in-vitro screening (growth index, radiometric 7H12 broth)
Format: cell-based
Settings: 100 μg/mL

With `OC[C@H]1O[C@@](CO)(O[C@H]2O[C@H](CO)[C@@H](O)[C@H](O)[C@H]2O)[C@@H](O)[C@@H]1O` [sucrose] the inhibition of growth was “no inhibition”.
